Here are results for five molecules from ChEMBL document CHEMBL3611990, “Identification of Purines and 7-Deazapurines as Potent and Selective Type I Inhibitors of Troponin I-Interacting Kinase (TNNI3K)” (J Med Chem, 2015).

Converted amounts (≈) assume the structure as drawn.

For data set [1], the system named is Rattus norvegicus. The experiment in a line: Dose normalized AUC in po dosed Sprague-Dawley rat by LC/MS/MS analysis. Format: ADME, organism-based. Conditions: in vivo.
Data set [2] concerns the target Serine/threonine-protein kinase B-raf (Homo sapiens, UniProt P15056, V600E). Briefly: Inhibition of His6-tagged full length BRAF V600E mutant (2 to 766 residues) (unknown origin) expressed in Baculovirus expression system by BRAMA method.
Data set [3] concerns the target T1, Serine/threonine-protein kinase TNNI3K (Homo sapiens, UniProt Q59H18).
T1 sequence (Q59H18 whole entry): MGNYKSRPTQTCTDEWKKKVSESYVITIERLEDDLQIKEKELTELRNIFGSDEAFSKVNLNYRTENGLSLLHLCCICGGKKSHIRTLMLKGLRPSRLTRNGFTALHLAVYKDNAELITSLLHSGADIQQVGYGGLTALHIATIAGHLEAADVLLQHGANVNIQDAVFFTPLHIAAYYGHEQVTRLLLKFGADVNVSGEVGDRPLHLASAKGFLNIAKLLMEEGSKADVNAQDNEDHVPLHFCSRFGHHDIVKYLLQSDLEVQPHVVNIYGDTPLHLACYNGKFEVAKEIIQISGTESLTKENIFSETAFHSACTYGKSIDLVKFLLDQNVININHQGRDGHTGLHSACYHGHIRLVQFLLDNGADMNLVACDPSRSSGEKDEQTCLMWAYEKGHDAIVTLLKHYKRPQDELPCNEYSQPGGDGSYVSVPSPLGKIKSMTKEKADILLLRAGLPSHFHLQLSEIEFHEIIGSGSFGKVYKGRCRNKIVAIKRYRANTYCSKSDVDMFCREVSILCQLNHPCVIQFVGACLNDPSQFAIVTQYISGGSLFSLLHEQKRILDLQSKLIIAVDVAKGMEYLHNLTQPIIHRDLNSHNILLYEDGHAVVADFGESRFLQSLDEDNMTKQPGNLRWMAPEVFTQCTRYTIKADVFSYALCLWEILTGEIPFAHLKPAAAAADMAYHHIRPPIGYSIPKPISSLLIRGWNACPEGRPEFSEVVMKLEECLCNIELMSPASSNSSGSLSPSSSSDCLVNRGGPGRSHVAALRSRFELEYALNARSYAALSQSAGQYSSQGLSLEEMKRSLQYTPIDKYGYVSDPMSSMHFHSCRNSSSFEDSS
Briefly: Displacement of 5-({[2-({[3-({4-[(5-hydroxy-2-methylphenyl)amino]-2-pyrimidinyl}amino)phenyl]carbonyl}amino)-ethyl]amino}carbonyl)-2-(6-hydroxy-3-oxo-3H-xanthen-9-yl)benzoic acid from His6-MBP-TEV-full length human TNNI3K expressed in Baculovirus expression system after 60 mins by fluorescence polarization assay.

Data set [4] deals with T1, Serine/threonine-protein kinase TNNI3K. The experiment in a line: Binding affinity to TNNI3K (unknown origin).
The nature of data set [5]: Oral bioavailability in Sprague-Dawley rat by LC/MS/MS analysis. Format: ADME, organism-based. The conditions noted are these: in vivo.
Data set [6] in a line: Volume of distribution at steady state in Sprague-Dawley rat by LC/MS/MS analysis. Format: ADME, organism-based. Conditions: in vivo, read-out: Vdss.
The nature of data set [7]: Plasma clearance in Sprague-Dawley rat at 1 mg/kg, iv by LC/MS/MS analysis. Format: ADME, organism-based.
Data set [8] is described as follows: Aqueous solubility of the compound. Format: physicochemical.
Data set [9] deals with T1, Serine/threonine-protein kinase TNNI3K. Briefly: Inhibition of human myc-tagged TNNI3K autophosphorylation overexpressed in HEKMSRII cells preincubated for 30 mins followed by pervanadate solution addition measured after 20 mins by DELFIA. Format: cell-based.

As usually defined, the IC50 is the concentration that gives 50% inhibition. A low value points to higher potency. A word on the Kd: it is the free concentration of one partner at which half of the binding sites on the other are occupied at equilibrium, for simple one-to-one binding. For orientation: bioavailability means dose-corrected exposure relative to a reference, in per cent. Low values mean little systemic uptake, high ones much systemic uptake. Usually clearance stands for the rate of elimination divided by the concentration. High values mean efficient removal, low ones inefficient removal. As usually defined, the solubility is how much of the substance goes into solution per volume. Low values mean a poorly soluble substance, high ones a readily soluble substance.

Serine/threonine-protein kinase B-raf, sequence (P15056 2-766 V600E limits assumed): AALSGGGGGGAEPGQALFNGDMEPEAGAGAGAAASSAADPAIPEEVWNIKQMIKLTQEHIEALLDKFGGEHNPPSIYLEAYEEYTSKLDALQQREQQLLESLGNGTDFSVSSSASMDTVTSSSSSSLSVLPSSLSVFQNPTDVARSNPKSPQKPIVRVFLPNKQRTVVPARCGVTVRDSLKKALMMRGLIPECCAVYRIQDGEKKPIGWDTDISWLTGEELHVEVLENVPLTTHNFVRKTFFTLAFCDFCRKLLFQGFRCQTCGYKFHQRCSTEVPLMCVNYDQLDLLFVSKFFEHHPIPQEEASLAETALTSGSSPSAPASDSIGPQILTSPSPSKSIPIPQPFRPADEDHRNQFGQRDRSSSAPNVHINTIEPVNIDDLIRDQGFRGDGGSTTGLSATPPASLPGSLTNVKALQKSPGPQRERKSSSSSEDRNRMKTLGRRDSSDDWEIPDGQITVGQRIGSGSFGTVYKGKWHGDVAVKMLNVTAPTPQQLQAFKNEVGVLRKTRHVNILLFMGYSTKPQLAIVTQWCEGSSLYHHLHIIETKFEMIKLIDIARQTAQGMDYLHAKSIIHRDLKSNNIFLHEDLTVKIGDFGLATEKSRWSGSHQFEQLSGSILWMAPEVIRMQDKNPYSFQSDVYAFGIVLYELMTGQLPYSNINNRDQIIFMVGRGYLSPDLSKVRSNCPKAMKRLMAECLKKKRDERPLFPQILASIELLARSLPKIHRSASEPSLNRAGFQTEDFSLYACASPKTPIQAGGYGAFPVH

`CNS(=O)(=O)c1cccc(Nc2ncnc3[nH]cnc23)c1` returned an AUC/dose in [1] of 0 kg·h/L. For the same molecule, the IC50 amounted to 32 nM in [2] and 500 nM in [3]. This molecule showed a Kd in data set [4] of 111 nM.
On to `CNS(=O)(=O)c1cccc(Nc2ncnc3[nH]ccc23)c1`, for which the AUC/dose in data set [1] was 0.08 kg·h/L. For the same molecule, the half-maximal inhibitory concentration (IC50) in data set [2] is 50 nM; in data set [3], 80 nM. The molecule further showed a bioavailability in [5] of 34%. In [6], the Vd was 1.4 L/kg. The same molecule had a clearance in data set [7] of 68 mL/min/kg. This molecule also had a solubility in data set [8] of 50 µM (≈ 15.2 µg/mL).
In [1], `CNS(=O)(=O)c1cccc(Nc2ncnc3[nH]cc(Cl)c23)c1` displayed an AUC/dose of 0.39 kg·h/L. For the same molecule, the IC50 was 13 nM in data set [2] and 32 nM in data set [3]. For the same molecule, the Vd in [6] was 0.45 L/kg. For the same molecule, in [7], the clearance was 20 mL/min/kg.
In the same order, the values of `CNS(=O)(=O)c1cccc(Nc2ncnc3[nH]cc(Br)c23)c1` are 0.55 kg·h/L, 5 nM, 32 nM, 0.63 L/kg and 23 mL/min/kg.
In the case of `CNS(=O)(=O)c1ccc(N(C)C)c(Nc2ncnc3[nH]ccc23)c1`, the AUC/dose in data set [1] amounted to 0.59 kg·h/L. The IC50 amounted to 6 nM in [2], 50 nM in data set [9] and 50 nM in [3]. Moreover, the bioavailability in [5] turned out to be 100%. This molecule also showed a clearance in [7] of 30 mL/min/kg. The molecule further registered a solubility in data set [8] of 330 µM (≈ 114 µg/mL).
